In ChEMBL document CHEMBL3991601, “The target landscape of clinical kinase drugs” (Science, 2017):
The source made the active and inactive calls. Rule as the data show it, for most assays here: actives have a measured Kd and inactives only a lower limit.

target: Dual specificity tyrosine-phosphorylation-regulated kinase 1A (Homo sapiens, UniProt Q13627); details: not given
Also: in the data inactive means no Kd found up to 30 µM.

| SMILES | Kd |
| --- | --- |
| COc1cc(OC)c(/C=C/S(=O)(=O)Cc2ccc(OC)c(NCC(=O)O)c2)c(OC)c1 [RIGOSERTIB] | > 30 µM (inactive) |
| CN1CCC(CNc2ccc3ncc(-c4cccc(OC(F)(F)F)c4)n3n2)CC1 [SGI-1776] | > 30 µM (inactive) |
| C[C@@H]1CN(Cc2ccc(F)cc2)[C@@H](C)CN1C(=O)c1cc2c(C(=O)C(=O)N(C)C)cn(C)c2cc1Cl [TALMAPIMOD] | > 30 µM (inactive) |

target: Platelet-derived growth factor receptor beta (Homo sapiens, UniProt P09619); details: not given
Sequence (P09619 whole entry): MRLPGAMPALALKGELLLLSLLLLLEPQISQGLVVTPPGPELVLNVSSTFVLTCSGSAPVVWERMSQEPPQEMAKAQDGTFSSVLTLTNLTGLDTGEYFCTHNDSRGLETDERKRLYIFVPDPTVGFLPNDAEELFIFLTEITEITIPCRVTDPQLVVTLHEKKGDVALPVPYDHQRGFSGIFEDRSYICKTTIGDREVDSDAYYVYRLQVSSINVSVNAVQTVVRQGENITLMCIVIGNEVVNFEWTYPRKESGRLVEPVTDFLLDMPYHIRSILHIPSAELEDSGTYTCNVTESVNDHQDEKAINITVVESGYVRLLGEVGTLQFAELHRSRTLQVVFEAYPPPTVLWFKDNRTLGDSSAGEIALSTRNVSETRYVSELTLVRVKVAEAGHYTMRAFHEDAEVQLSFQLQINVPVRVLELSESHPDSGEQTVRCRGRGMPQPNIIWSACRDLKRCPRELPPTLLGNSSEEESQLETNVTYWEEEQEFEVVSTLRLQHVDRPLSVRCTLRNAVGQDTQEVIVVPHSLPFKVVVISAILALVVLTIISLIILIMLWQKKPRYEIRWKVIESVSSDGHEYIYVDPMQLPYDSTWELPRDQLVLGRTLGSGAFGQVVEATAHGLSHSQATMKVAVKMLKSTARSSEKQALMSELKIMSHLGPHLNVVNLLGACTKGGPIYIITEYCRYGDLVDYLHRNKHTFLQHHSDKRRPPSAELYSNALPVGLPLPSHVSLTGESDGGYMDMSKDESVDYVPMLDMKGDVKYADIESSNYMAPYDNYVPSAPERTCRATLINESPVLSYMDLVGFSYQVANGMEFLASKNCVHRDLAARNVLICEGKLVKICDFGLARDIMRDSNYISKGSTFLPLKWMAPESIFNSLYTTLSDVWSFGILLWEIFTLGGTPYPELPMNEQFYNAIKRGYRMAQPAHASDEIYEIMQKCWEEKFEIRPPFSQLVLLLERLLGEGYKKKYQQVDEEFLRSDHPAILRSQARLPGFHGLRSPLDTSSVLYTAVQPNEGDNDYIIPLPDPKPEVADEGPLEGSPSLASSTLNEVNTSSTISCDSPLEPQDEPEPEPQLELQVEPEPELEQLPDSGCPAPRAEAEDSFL

| SMILES | Kd |
| --- | --- |
| COc1cc(OC)c(/C=C/S(=O)(=O)Cc2ccc(OC)c(NCC(=O)O)c2)c(OC)c1 [RIGOSERTIB] | > 30 µM (inactive) |
| CN1CCC(CNc2ccc3ncc(-c4cccc(OC(F)(F)F)c4)n3n2)CC1 [SGI-1776] | 1.61 µM (active) |
| C[C@@H]1CN(Cc2ccc(F)cc2)[C@@H](C)CN1C(=O)c1cc2c(C(=O)C(=O)N(C)C)cn(C)c2cc1Cl [TALMAPIMOD] | > 30 µM (inactive) |

target: Ribosomal protein S6 kinase beta-1 (Homo sapiens, UniProt P23443); details: not given
Sequence (P23443 whole entry): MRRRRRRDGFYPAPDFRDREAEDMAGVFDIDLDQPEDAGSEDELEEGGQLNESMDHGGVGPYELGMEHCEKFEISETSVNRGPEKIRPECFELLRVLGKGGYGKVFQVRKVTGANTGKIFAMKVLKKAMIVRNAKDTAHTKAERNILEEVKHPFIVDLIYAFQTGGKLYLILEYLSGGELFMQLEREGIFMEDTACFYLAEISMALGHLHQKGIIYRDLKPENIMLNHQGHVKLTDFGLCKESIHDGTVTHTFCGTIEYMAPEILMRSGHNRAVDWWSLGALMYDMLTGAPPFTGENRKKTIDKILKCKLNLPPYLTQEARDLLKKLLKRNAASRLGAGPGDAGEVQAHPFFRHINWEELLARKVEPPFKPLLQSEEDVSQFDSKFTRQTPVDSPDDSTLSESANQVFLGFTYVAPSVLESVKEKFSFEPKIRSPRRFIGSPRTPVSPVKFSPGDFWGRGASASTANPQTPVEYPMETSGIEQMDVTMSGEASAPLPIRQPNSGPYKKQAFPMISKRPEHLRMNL

| SMILES | Kd |
| --- | --- |
| COc1cc(OC)c(/C=C/S(=O)(=O)Cc2ccc(OC)c(NCC(=O)O)c2)c(OC)c1 [RIGOSERTIB] | > 30 µM (inactive) |
| CN1CCC(CNc2ccc3ncc(-c4cccc(OC(F)(F)F)c4)n3n2)CC1 [SGI-1776] | > 30 µM (inactive) |
| C[C@@H]1CN(Cc2ccc(F)cc2)[C@@H](C)CN1C(=O)c1cc2c(C(=O)C(=O)N(C)C)cn(C)c2cc1Cl [TALMAPIMOD] | > 30 µM (inactive) |

target: Cyclin-dependent kinase 6 (Homo sapiens, UniProt Q00534); details: not given
Sequence (Q00534 whole entry): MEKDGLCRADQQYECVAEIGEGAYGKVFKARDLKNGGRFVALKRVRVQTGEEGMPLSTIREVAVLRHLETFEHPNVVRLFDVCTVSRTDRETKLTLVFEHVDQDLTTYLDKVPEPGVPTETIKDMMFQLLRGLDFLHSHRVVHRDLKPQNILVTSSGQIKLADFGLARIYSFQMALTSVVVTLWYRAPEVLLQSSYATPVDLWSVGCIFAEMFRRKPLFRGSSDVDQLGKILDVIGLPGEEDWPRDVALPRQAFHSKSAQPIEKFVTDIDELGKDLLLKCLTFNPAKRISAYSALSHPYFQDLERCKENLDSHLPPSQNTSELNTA

| SMILES | Kd |
| --- | --- |
| COc1cc(OC)c(/C=C/S(=O)(=O)Cc2ccc(OC)c(NCC(=O)O)c2)c(OC)c1 [RIGOSERTIB] | > 30 µM (inactive) |
| CN1CCC(CNc2ccc3ncc(-c4cccc(OC(F)(F)F)c4)n3n2)CC1 [SGI-1776] | > 30 µM (inactive) |
| C[C@@H]1CN(Cc2ccc(F)cc2)[C@@H](C)CN1C(=O)c1cc2c(C(=O)C(=O)N(C)C)cn(C)c2cc1Cl [TALMAPIMOD] | > 30 µM (inactive) |

target: Glycogen synthase kinase-3 beta (Homo sapiens, UniProt P49841); details: not given
Sequence (P49841 whole entry): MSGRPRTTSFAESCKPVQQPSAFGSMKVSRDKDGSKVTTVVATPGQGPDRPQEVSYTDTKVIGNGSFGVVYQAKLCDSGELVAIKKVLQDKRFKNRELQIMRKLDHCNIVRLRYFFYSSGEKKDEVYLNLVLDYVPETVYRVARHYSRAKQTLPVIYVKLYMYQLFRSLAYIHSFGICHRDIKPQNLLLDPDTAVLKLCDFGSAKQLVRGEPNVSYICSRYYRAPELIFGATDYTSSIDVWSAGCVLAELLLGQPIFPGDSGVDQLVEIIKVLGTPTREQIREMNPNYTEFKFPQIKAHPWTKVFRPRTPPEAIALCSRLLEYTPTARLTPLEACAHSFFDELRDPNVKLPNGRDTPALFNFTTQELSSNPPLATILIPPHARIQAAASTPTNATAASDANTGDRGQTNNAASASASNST

| SMILES | Kd |
| --- | --- |
| COc1cc(OC)c(/C=C/S(=O)(=O)Cc2ccc(OC)c(NCC(=O)O)c2)c(OC)c1 [RIGOSERTIB] | > 30 µM (inactive) |
| CN1CCC(CNc2ccc3ncc(-c4cccc(OC(F)(F)F)c4)n3n2)CC1 [SGI-1776] | > 30 µM (inactive) |
| C[C@@H]1CN(Cc2ccc(F)cc2)[C@@H](C)CN1C(=O)c1cc2c(C(=O)C(=O)N(C)C)cn(C)c2cc1Cl [TALMAPIMOD] | > 30 µM (inactive) |

target: T1, RNA cytidine acetyltransferase (Homo sapiens, UniProt Q9H0A0); details: not given
T1 sequence (Q9H0A0 whole entry): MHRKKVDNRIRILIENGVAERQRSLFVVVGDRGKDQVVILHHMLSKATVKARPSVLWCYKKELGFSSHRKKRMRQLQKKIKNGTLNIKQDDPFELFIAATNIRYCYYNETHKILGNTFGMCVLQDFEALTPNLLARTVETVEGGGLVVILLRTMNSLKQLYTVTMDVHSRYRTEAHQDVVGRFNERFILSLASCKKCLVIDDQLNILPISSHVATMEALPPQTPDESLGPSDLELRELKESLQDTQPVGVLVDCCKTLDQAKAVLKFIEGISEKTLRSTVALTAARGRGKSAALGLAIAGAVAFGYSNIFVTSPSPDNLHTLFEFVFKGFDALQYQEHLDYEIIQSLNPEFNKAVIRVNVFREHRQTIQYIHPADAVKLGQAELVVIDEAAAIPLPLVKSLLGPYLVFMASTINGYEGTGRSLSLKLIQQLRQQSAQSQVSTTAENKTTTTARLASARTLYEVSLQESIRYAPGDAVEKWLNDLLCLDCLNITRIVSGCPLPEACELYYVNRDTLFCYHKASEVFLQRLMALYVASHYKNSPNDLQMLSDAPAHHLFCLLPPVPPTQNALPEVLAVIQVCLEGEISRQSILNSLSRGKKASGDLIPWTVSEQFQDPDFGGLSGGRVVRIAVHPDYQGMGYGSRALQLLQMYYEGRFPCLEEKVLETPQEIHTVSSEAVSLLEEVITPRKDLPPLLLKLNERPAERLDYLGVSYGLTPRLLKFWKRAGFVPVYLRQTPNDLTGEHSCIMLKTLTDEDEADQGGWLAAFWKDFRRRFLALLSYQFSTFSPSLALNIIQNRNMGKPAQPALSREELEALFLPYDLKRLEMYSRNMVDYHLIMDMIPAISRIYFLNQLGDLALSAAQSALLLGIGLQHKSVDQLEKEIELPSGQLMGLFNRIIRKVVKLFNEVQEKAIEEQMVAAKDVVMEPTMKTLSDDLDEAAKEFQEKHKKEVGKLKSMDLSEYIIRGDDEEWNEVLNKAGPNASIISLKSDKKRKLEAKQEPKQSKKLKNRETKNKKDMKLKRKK

| SMILES | Kd |
| --- | --- |
| COc1cc(OC)c(/C=C/S(=O)(=O)Cc2ccc(OC)c(NCC(=O)O)c2)c(OC)c1 [RIGOSERTIB] | > 30 µM (inactive) |
| CN1CCC(CNc2ccc3ncc(-c4cccc(OC(F)(F)F)c4)n3n2)CC1 [SGI-1776] | > 30 µM (inactive) |
| C[C@@H]1CN(Cc2ccc(F)cc2)[C@@H](C)CN1C(=O)c1cc2c(C(=O)C(=O)N(C)C)cn(C)c2cc1Cl [TALMAPIMOD] | > 30 µM (inactive) |

target: T2, Uncharacterized protein FLJ45252 (Homo sapiens, UniProt Q6ZSR9); details: read-out: Kd apparent; k-562, colo 205, sk-n-be(2) and mv-4-11
T2 sequence (Q6ZSR9 whole entry): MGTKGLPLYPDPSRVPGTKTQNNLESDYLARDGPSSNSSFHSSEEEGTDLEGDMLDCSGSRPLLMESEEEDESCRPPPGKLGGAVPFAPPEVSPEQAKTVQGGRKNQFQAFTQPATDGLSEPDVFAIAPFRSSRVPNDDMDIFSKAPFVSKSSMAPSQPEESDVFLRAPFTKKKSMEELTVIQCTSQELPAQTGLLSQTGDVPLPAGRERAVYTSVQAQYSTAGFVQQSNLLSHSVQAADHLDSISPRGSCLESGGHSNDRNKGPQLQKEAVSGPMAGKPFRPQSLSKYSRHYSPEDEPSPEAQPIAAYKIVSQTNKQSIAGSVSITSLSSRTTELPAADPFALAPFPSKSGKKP

| SMILES | Kd |
| --- | --- |
| COc1cc(OC)c(/C=C/S(=O)(=O)Cc2ccc(OC)c(NCC(=O)O)c2)c(OC)c1 [RIGOSERTIB] | > 30 µM (inactive) |
| CN1CCC(CNc2ccc3ncc(-c4cccc(OC(F)(F)F)c4)n3n2)CC1 [SGI-1776] | > 30 µM (inactive) |
| C[C@@H]1CN(Cc2ccc(F)cc2)[C@@H](C)CN1C(=O)c1cc2c(C(=O)C(=O)N(C)C)cn(C)c2cc1Cl [TALMAPIMOD] | > 30 µM (inactive) |

target: Rho-associated protein kinase 2 (Homo sapiens, UniProt O75116); details: not given
Sequence (O75116 whole entry): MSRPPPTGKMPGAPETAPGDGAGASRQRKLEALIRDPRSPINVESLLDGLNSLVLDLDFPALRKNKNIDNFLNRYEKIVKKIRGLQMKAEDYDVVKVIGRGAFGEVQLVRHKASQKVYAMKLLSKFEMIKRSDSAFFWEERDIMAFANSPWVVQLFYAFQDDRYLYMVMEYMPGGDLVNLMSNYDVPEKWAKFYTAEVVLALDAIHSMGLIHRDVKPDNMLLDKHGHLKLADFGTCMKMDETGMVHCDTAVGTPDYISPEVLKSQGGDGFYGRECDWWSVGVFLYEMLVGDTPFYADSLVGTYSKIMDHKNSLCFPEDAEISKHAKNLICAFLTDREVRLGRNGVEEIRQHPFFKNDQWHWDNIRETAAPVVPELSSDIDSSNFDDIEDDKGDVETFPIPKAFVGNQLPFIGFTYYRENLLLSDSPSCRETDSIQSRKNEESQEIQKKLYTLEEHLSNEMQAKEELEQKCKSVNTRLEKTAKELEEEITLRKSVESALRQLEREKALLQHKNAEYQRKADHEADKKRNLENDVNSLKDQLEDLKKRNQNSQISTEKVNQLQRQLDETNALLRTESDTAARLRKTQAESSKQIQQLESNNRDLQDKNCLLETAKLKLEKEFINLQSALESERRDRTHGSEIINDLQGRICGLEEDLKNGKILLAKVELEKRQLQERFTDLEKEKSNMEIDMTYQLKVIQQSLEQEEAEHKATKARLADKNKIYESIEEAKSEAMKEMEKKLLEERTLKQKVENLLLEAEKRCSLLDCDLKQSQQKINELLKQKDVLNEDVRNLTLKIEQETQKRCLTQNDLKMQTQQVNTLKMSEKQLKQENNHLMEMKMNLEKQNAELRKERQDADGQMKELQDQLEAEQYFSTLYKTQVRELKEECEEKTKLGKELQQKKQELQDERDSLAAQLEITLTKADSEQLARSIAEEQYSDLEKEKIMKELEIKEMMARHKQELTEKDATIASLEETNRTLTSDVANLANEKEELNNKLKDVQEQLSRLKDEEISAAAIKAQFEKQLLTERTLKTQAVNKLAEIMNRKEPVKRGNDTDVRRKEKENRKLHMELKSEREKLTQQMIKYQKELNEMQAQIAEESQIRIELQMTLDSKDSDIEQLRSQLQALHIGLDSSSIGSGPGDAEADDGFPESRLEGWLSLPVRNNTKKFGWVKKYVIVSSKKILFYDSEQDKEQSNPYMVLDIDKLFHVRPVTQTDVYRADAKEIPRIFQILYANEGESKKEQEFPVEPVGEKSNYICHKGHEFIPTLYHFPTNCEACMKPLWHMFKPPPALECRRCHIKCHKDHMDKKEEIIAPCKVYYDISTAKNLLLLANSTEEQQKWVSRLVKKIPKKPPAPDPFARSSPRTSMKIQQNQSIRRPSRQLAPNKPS

| SMILES | Kd |
| --- | --- |
| COc1cc(OC)c(/C=C/S(=O)(=O)Cc2ccc(OC)c(NCC(=O)O)c2)c(OC)c1 [RIGOSERTIB] | > 30 µM (inactive) |
| CN1CCC(CNc2ccc3ncc(-c4cccc(OC(F)(F)F)c4)n3n2)CC1 [SGI-1776] | > 30 µM (inactive) |
| C[C@@H]1CN(Cc2ccc(F)cc2)[C@@H](C)CN1C(=O)c1cc2c(C(=O)C(=O)N(C)C)cn(C)c2cc1Cl [TALMAPIMOD] | > 30 µM (inactive) |

target: T3, Signal recognition particle receptor subunit alpha (Homo sapiens, UniProt P08240); details: not given
T3 sequence (P08240 whole entry): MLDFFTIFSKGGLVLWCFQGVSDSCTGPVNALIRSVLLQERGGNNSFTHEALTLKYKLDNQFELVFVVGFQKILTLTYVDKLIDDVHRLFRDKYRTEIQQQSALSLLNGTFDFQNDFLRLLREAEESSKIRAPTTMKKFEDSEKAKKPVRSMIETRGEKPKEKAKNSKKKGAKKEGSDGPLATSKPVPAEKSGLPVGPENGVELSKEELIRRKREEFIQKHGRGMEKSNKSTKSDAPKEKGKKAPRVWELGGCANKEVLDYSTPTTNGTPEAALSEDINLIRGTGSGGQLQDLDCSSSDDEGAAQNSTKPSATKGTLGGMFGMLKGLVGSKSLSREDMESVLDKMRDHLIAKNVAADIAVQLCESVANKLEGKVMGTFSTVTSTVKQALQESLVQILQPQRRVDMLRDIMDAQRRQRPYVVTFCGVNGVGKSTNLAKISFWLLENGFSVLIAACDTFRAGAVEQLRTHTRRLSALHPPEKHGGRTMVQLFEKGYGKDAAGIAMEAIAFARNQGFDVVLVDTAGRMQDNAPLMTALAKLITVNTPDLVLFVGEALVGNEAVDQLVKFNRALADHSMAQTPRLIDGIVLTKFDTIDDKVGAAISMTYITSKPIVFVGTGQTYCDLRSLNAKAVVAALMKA

| SMILES | Kd |
| --- | --- |
| COc1cc(OC)c(/C=C/S(=O)(=O)Cc2ccc(OC)c(NCC(=O)O)c2)c(OC)c1 [RIGOSERTIB] | > 30 µM (inactive) |
| CN1CCC(CNc2ccc3ncc(-c4cccc(OC(F)(F)F)c4)n3n2)CC1 [SGI-1776] | > 30 µM (inactive) |
| C[C@@H]1CN(Cc2ccc(F)cc2)[C@@H](C)CN1C(=O)c1cc2c(C(=O)C(=O)N(C)C)cn(C)c2cc1Cl [TALMAPIMOD] | > 30 µM (inactive) |

target: T4, TGF-beta receptor type-1 (Homo sapiens, UniProt P36897); details: not given
T4 sequence (P36897 whole entry): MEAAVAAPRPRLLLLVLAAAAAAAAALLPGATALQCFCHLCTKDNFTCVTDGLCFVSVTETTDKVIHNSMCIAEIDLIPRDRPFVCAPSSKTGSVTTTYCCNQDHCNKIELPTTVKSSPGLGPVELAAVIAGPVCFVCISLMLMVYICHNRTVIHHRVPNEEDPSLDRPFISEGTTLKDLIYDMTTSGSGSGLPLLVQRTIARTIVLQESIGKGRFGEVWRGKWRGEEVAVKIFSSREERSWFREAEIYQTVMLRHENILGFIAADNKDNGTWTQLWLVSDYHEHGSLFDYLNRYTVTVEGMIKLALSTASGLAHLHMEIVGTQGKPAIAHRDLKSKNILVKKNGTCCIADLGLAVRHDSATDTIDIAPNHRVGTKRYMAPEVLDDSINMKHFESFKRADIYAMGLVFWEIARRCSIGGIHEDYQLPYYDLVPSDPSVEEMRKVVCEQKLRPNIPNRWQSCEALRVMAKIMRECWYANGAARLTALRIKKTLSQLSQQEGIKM

| SMILES | Kd |
| --- | --- |
| COc1cc(OC)c(/C=C/S(=O)(=O)Cc2ccc(OC)c(NCC(=O)O)c2)c(OC)c1 [RIGOSERTIB] | > 30 µM (inactive) |
| CN1CCC(CNc2ccc3ncc(-c4cccc(OC(F)(F)F)c4)n3n2)CC1 [SGI-1776] | > 30 µM (inactive) |
| C[C@@H]1CN(Cc2ccc(F)cc2)[C@@H](C)CN1C(=O)c1cc2c(C(=O)C(=O)N(C)C)cn(C)c2cc1Cl [TALMAPIMOD] | > 30 µM (inactive) |

target: Mitogen-activated protein kinase 3 (Homo sapiens, UniProt P27361); details: not given
Sequence (P27361 whole entry): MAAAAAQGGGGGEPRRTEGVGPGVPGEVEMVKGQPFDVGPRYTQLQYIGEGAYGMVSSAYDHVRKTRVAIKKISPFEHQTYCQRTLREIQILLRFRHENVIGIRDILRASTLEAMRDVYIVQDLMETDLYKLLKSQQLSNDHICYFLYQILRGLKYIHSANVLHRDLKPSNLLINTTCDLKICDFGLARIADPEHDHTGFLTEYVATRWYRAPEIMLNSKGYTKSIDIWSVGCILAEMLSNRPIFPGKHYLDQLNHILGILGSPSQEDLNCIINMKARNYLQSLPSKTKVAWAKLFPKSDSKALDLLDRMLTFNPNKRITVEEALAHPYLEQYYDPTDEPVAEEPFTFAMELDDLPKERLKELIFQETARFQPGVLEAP

| SMILES | Kd |
| --- | --- |
| COc1cc(OC)c(/C=C/S(=O)(=O)Cc2ccc(OC)c(NCC(=O)O)c2)c(OC)c1 [RIGOSERTIB] | > 30 µM (inactive) |
| CN1CCC(CNc2ccc3ncc(-c4cccc(OC(F)(F)F)c4)n3n2)CC1 [SGI-1776] | > 30 µM (inactive) |
| C[C@@H]1CN(Cc2ccc(F)cc2)[C@@H](C)CN1C(=O)c1cc2c(C(=O)C(=O)N(C)C)cn(C)c2cc1Cl [TALMAPIMOD] | > 30 µM (inactive) |
